# Data as given in ChEMBL document CHEMBL4052827, “Discovery of Tetrahydroisoquinoline-Containing CXCR4 Antagonists with Improved in Vitro ADMET Properties” (J Med Chem, 2018).
# Key:
# [1] = target: T1, C-X-C chemokine receptor type 4 (Homo sapiens, UniProt P61073); experiment: Antagonist activity at human CXCR4 in CCRF-CEM cells assessed as decrease in SDF-1alpha stimulated Ca2+ flux preincubated for 25 mins followed by SDF-1alpha addition measured for 90 secs by calcium dye-based fluorescence assay; assay type: functional, cell-based
# [2] = Metabolic stability in human liver microsomes assessed as parent compound remaining at 0.5 uM after 10 mins in presence of NADPH by LC-MS/MS analysis
# [3] = Agonist activity at mAChR in human CCRF-CEM cells assessed as induction of Ca2+ flux measured for 90 secs by calcium dye-based fluorescence assay; assay type: cell-based
# [4] = Antagonist activity at mAChR in human CCRF-CEM cells assessed as decrease in acetylacholine-stimulated Ca2+ flux preincubated for 25 mins followed by acetylacholine addition measured for 90 secs by calcium dye-based fluorescence assay; assay type: cell-based
# [5] = Permeability of the compound at pH 7.4 at 100 uM after 4 hrs by PAMPA
# Cytochrome P450 3A4 = Cytochrome P450 3A4 (Homo sapiens, UniProt P08684); experiment: Inhibition of CYP3A4 (unknown origin)
# [6] = target: T1, C-X-C chemokine receptor type 4; experiment: Agonist activity at CXCR4 in human CCRF-CEM cells assessed as induction of Ca2+ flux measured for 90 secs by calcium dye-based fluorescence assay; assay type: functional, cell-based
# [7] = Metabolic stability in mouse liver microsomes assessed as parent compound remaining at 0.5 uM after 10 mins in presence of NADPH by LC-MS/MS analysis
# Cytochrome P450 2D6 = Cytochrome P450 2D6 (Homo sapiens, UniProt P10635); experiment: Inhibition of recombinant human CYP2D6 expressed in microsomes of insect cells using AMMC as substrate preincubated for 30 mins followed by NADP addition after 45 mins by fluorescence analysis
# [8] = target: C-X-C chemokine receptor type 4 (Mus musculus, UniProt P70658); experiment: Antagonist activity at mouse CXCR4
# [9] = Permeability of the compound at pH 5.5 at 100 uM after 4 hrs by PAMPA
# Cytochrome P450 2C19 = Cytochrome P450 2C19 (Homo sapiens, UniProt P33261); experiment: Inhibition of CYP2C19 (unknown origin)
# [10] = Inhibition of CYP1A4 (unknown origin)
# Cytochrome P450 2C9 = Cytochrome P450 2C9 (Homo sapiens, UniProt P11712); experiment: Inhibition of CYP2C9 (unknown origin)
# Cytochrome P450 2C8 = target: T2, Cytochrome P450 2C8 (Homo sapiens, UniProt P10632); experiment: Inhibition of CYP2C8 (unknown origin)
# T2 sequence (P10632 whole entry): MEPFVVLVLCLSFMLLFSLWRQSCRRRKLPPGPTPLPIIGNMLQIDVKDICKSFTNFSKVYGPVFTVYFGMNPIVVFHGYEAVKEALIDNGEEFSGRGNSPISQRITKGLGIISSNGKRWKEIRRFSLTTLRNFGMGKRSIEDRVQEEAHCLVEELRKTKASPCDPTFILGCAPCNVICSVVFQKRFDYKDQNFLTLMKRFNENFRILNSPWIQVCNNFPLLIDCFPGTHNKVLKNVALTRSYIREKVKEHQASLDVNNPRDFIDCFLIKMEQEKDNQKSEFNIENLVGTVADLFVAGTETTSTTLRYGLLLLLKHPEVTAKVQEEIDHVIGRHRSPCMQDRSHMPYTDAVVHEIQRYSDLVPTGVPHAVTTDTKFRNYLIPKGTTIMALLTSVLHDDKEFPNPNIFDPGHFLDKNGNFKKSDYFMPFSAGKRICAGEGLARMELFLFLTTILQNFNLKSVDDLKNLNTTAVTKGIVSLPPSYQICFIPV
# [11] = Half life in rat Plasma; assay type: ADME, cell-free
# Homo sapiens = species: Homo sapiens; experiment: Inhibition of chemokine receptor (unknown origin) at 10 uM
# [12] = Half life in human liver microsomes; assay type: ADME, microsome
# Chain of Cytochrome P450 2C19 (P33261 whole entry): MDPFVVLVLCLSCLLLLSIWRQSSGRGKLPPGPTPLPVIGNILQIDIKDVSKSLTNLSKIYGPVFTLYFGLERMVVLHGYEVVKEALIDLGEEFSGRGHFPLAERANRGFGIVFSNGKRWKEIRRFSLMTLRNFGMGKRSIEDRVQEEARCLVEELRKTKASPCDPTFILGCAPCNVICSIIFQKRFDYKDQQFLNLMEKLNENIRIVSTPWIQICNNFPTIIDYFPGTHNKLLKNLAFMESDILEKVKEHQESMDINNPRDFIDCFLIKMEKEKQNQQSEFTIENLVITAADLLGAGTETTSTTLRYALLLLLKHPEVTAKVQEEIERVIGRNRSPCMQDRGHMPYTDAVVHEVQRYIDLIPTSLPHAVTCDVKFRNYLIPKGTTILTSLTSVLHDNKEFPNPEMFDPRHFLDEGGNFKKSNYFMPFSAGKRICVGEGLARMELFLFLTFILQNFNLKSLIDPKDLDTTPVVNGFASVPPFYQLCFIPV
# T1 sequence (P61073 whole entry): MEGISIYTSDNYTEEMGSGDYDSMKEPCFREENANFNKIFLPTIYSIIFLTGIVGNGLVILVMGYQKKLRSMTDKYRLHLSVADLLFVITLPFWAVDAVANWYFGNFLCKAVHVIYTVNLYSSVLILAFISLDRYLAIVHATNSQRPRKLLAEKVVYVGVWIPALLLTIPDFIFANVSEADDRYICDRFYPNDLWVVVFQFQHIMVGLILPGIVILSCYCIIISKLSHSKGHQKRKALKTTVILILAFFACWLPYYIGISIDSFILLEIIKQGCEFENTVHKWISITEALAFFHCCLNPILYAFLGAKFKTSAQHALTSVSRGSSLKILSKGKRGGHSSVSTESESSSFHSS
# Chain of Cytochrome P450 2D6 (P10635 whole entry): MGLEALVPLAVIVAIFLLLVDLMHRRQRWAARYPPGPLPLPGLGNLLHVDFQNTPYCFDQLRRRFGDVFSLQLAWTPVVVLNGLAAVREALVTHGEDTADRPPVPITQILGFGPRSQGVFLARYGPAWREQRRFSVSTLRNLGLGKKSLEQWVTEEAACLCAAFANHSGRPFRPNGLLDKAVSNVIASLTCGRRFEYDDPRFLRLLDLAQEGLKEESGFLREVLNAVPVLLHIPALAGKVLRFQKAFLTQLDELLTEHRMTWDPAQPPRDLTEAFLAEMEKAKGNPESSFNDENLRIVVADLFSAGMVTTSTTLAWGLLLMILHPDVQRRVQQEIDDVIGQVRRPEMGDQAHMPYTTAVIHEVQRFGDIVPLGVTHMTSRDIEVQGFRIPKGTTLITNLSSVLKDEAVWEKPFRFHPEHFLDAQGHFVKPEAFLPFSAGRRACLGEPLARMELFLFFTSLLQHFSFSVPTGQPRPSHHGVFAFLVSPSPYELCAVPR
# Chain of Cytochrome P450 3A4 (P08684 whole entry): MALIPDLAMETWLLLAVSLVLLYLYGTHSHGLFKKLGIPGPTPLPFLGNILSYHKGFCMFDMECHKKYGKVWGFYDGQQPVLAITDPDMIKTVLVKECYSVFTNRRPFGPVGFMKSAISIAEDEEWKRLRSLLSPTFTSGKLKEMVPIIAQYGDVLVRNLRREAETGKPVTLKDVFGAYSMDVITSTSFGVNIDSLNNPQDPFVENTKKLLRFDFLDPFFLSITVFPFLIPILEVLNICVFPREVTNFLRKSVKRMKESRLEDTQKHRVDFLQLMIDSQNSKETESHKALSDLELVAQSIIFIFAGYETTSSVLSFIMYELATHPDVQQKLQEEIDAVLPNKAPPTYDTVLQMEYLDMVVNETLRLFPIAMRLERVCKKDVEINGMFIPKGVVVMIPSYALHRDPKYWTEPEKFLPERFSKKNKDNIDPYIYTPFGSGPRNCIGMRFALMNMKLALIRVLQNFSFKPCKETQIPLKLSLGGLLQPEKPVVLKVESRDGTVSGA
# Chain of C-X-C chemokine receptor type 4 (Mus musculus, UniProt P70658) (P70658 whole entry): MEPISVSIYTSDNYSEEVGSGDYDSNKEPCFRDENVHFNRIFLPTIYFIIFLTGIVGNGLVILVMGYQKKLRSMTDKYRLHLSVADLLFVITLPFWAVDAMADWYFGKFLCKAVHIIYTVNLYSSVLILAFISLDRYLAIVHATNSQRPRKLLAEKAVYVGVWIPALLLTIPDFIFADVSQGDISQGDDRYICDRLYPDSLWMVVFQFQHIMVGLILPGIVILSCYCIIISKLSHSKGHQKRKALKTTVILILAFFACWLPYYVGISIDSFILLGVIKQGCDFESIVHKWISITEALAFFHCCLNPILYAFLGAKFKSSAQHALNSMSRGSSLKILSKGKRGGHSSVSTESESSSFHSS
# Chain of Cytochrome P450 2C9 (P11712 whole entry): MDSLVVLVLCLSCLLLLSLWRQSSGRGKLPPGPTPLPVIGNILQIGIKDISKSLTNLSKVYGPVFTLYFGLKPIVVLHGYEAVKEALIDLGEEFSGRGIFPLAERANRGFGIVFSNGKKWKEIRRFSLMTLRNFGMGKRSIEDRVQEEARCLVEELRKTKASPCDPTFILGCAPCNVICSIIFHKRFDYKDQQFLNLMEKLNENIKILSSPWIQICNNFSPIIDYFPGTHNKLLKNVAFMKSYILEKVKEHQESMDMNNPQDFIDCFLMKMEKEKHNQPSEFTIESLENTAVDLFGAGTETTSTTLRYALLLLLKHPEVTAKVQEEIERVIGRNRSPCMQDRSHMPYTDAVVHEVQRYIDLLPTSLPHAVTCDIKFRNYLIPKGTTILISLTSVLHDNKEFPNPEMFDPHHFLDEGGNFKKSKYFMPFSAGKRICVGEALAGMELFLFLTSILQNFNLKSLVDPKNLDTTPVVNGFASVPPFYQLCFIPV
SMILES,IC50 [1],"remaining at 10 min, 0.5 µM [2]",EC50 [3],IC50 [4],"Papp at 4 h, 100 µM [5]",IC50 (Cytochrome P450 3A4),EC50 [6],"remaining at 10 min, 0.5 µM [7]",IC50 (Cytochrome P450 2D6),IC50 [8],IC90 [1],"Papp at 4 h, 100 µM [9]",IC50 (Cytochrome P450 2C19),IC50 [10],IC50 (Cytochrome P450 2C9),IC50 (Cytochrome P450 2C8),half-life [11],inhibition (Homo sapiens),half-life [12]
CC(C)(CCN(C[C@H]1Cc2ccccc2CN1)[C@H]1CCCc2cccnc21)CNC1CCOCC1,0.0363 µM,21.8%,> 30 µM,11.5 µM,57 nm/s,17.7 µM,> 30 µM,49.8%,6.21 µM,0.02 µM,0.416 µM,57 nm/s,< 5 µM,< 5 µM,< 5 µM,< 5 µM,–,–,–
CC(C)(N)CCCN(C[C@H]1Cc2ccccc2CN1)[C@H]1CCCc2cccnc21,0.0246 µM,73.5%,> 30 µM,> 16.7 µM,–,> 20 µM,> 30 µM,3.32%,0.345 µM,–,–,20 nm/s,–,–,–,–,–,–,–
NCCCCN(C[C@H]1Cc2ccccc2CN1)[C@H]1CCCc2cccnc21,–,–,> 30 µM,> 30 µM,–,–,–,–,–,–,0.0326 µM,6 nm/s,–,–,–,–,6 h,< 10%,1 h
CC1(C)CCC(NCC(C)(C)CCN(C[C@H]2Cc3ccccc3CN2)[C@H]2CCCc3cccnc32)CC1,0.541 µM,23.9%,> 30 µM,18.8 µM,28 nm/s,7.83 µM,> 30 µM,51.1%,2.22 µM,–,–,11 nm/s,< 5 µM,< 5 µM,< 5 µM,< 5 µM,–,–,–
CC(C)(CCN(C[C@H]1Cc2ccccc2CN1)[C@H]1CCCc2cccnc21)CNC1CCC(F)(F)CC1,0.168 µM,16.1%,> 30 µM,18.8 µM,22 nm/s,–,> 30 µM,16.8%,2.04 µM,–,–,17.5 nm/s,< 5 µM,< 5 µM,< 5 µM,< 5 µM,–,–,–
c1ccc2c(c1)CN[C@@H](CN(CCCCN(Cc1ccncc1)Cc1ccncc1)[C@H]1CCCc3cccnc31)C2,0.832 µM,0.521%,> 30 µM,11.4 µM,774 nm/s,0.622 µM,> 30 µM,1.55%,0.12 µM,–,–,180 nm/s,–,–,–,–,–,–,–
c1ccc2c(c1)CN[C@@H](CN(CCCCNC1CCSCC1)[C@H]1CCCc3cccnc31)C2,0.0547 µM,39.9%,> 30 µM,> 33.3 µM,2 nm/s,–,> 30 µM,23.2%,0.434 µM,–,–,46 nm/s,–,–,–,–,–,–,–

# Continued, values first:
IC50 [1],"remaining at 10 min, 0.5 µM [2]",EC50 [3],IC50 [4],"Papp at 4 h, 100 µM [5]",IC50 (Cytochrome P450 3A4),EC50 [6],"remaining at 10 min, 0.5 µM [7]",IC50 (Cytochrome P450 2D6),IC50 [8],IC90 [1],"Papp at 4 h, 100 µM [9]",IC50 (Cytochrome P450 2C19),IC50 [10],IC50 (Cytochrome P450 2C9),IC50 (Cytochrome P450 2C8),half-life [11],inhibition (Homo sapiens),half-life [12],SMILES
0.069 µM,88.7%,> 30 µM,> 16.7 µM,405 nm/s,> 20 µM,> 30 µM,51.2%,0.498 µM,–,–,–,–,–,–,–,–,–,–,CC(C)(CN)CCN(C[C@H]1Cc2ccccc2CN1)[C@H]1CCCc2cccnc21
–,42%,> 30 µM,2.45 µM,–,0.99 µM,> 30 µM,7.71%,0.66 µM,–,–,–,–,–,–,–,–,–,–,CC1(C)CCC(NC/C=C/CN(C[C@H]2Cc3ccccc3CN2)[C@H]2CCCc3cccnc32)CC1
> 33.3 µM,76.1%,> 30 µM,> 33.3 µM,255 nm/s,10.8 µM,> 30 µM,5.22%,0.197 µM,–,–,268 nm/s,–,–,–,–,–,–,–,CC(C)(CCN)CN(C[C@H]1Cc2ccccc2CN1)[C@H]1CCCc2cccnc21
0.471 µM,0.432%,> 30 µM,11.5 µM,435 nm/s,–,> 30 µM,1.4%,0.348 µM,–,–,91 nm/s,–,–,–,–,–,–,–,c1cncc(CN(CCCCN(C[C@H]2Cc3ccccc3CN2)[C@H]2CCCc3cccnc32)Cc2cccnc2)c1
–,69.9%,> 30 µM,5.61 µM,434 nm/s,–,> 30 µM,10%,2.61 µM,0.00924 µM,0.191 µM,105 nm/s,< 5 µM,< 5 µM,< 5 µM,< 5 µM,–,–,–,C(=C\CN(C[C@H]1Cc2ccccc2CN1)[C@H]1CCCc2cccnc21)/CNC1CCOCC1
–,74.5%,> 30 µM,19.9 µM,122 nm/s,–,> 30 µM,32.3%,3.32 µM,0.00547 µM,0.195 µM,33.5 nm/s,< 5 µM,< 5 µM,< 5 µM,< 5 µM,–,–,–,C(=C\CN(C[C@H]1Cc2ccccc2CN1)[C@H]1CCCc2cccnc21)/CNCC1CCOCC1
0.664 µM,0.548%,> 30 µM,12.9 µM,294 nm/s,–,> 30 µM,0.374%,1.16 µM,–,–,48 nm/s,–,–,–,–,–,–,–,c1ccc(CN(CCCCN(C[C@H]2Cc3ccccc3CN2)[C@H]2CCCc3cccnc32)Cc2ccccn2)nc1
